Measurements: US20170027954A1, “METHODS OF ENHANCING ANTIBODY-DEPENDENT CELLULAR CYTOTOXICITY” (VENTIRX PHARMACEUTICALS, INC., priority 2010, published 2017)

Columns and labels:
Type in all cases: cell-based, human
K562 target cells = experiment: NK assay: lysis of Calcein AM labeled K562 target cells by PBMCs stimulated with the ADCC enhancer; details: FIG. 1
Description: Stimulation of PBMCs: Human Peripheral blood mononuclear cells (PBMCs) were isolated by Ficoll™ density gradient centrifugation and resuspended in RPMI containing 2% heat-inactivated FBS. PBMCs at a concentration of 1 to 3 million cells per mL were incubated with 10-500 nM ADCC enhancer in a humidified CO2 incubator for 18-72 hrs. Activated PBMCs were then used as effector cells in NK and ADCC assays. NK and ADCC Assays: PBMCs activated with the ADCC enhancer were tested for the ability to enhance killing of the NK sensitive target cell line K562 or various tumor cells coated with monoclonal antibodies. Target cells were labeled with the fluorescent dye Calcein AM for 1 hour at 37° C. in a dark humidified CO2 incubator. […] Activated effector cells and labeled target cells were incubated in 96-well tissue culture plates at for 4 hours at 37° C. in a dark humidified CO2 incubator in an assay buffer containing HBSS+Ca/Mg+5% FBS. […] Fluorecence was quantified with a fluorescent microtiter plate reader. The % specific lysis was calculated as (Sample fluorescence-spontaneous fluorescence)*100/(100% fluorescence-spontaneous). 100% fluorescence was determined from wells that contained labeled target cells and detergent such at 0.1% Tween-20 or Triton X-100. Spontaneous fluorescence was determined from wells that contained assay buffer and target cells but not effector cells. […]

[1] = system: breast cancer cell line MDA-MB-231; experiment: Herceptin-mediated ADCC of MDA-MB-231 cells by PBMC effector cells; details: PBMCs activated with the ADCC enhancer; FIG. 3
Description: (§1) Stimulation of PBMCs: Human Peripheral blood mononuclear cells (PBMCs) were isolated by Ficoll™ density gradient centrifugation and resuspended in RPMI containing 2% heat-inactivated FBS. PBMCs at a concentration of 1 to 3 million cells per mL were incubated with 10-500 nM ADCC enhancer in a humidified CO2 incubator for 18-72 hrs. Activated PBMCs were then used as effector cells in NK and ADCC assays. NK and ADCC Assays: PBMCs activated with the ADCC enhancer were tested for the ability to enhance killing of the NK sensitive target cell line K562 or various tumor cells coated with monoclonal antibodies. Target cells were labeled with the fluorescent dye Calcein AM for 1 hour at 37° C. in a dark humidified CO2 incubator. […] Activated effector cells and labeled target cells were incubated in 96-well tissue culture plates at for 4 hours at 37° C. in a dark humidified CO2 incubator in an assay buffer containing HBSS+Ca/Mg+5% FBS. […] Fluorecence was quantified with a fluorescent microtiter plate reader. The % specific lysis was calculated as (Sample fluorescence-spontaneous fluorescence)*100/(100% fluorescence-spontaneous). 100% fluorescence was determined from wells that contained labeled target cells and detergent such at 0.1% Tween-20 or Triton X-100. Spontaneous fluorescence was determined from wells that contained assay buffer and target cells but not effector cells.

[2] = system: rituximab-coated HS-Sultan cells; experiment: Rituximab-mediated ADCC of HS-Sultan cells with PBMCs from FcγR-genotyped donors; details: for rituximab-mediated ADCC, specific lysis: ratio 100:1, FIG. 5; for baseline ADCC (percent specific lysis): buffer control
Description: Percent specific lysis is shown for Rituxan-coated HS-Sultan cells incubated with PBMC effector cells at an E:T ratio of 50:1. PBMCs from a patient with the high affinity genotype FcgR2a131 H/H and FcgR3a V/V (solid rectangles) or a patient with the lower affinity genotype FcgR2a131 […] and FcgR3a V/F (open rectangles) were evaluated for ADCC after stimulation with buffer control (baseline) or stimulation with 500 nM ADCC enhancer.
ADCC is mediated through immune effector cells included NK cells that engage the Fc portion of the monoclonal antibody through specific receptors. Patients with single nucleotide polymorphisms in these receptors such as FcRgamma3a position 158 and FcRgamma2a position 131 have a poorer clinical prognosis presumably from poor ADCC due to a lower affinity of the receptor for the monoclonal antibody. […] To determine if this common polymorphism affects the baseline antibody-dependent cellular cytoxicity (ADCC) response and/or response to the ADCC enhancer molecule of the present invention (Compound VTX-2337), PBMCs from donors were genotyped for the two alleles encoding the F and V isoforms, respectively, and tested in vitro. We analyzed rituximab-mediated ADCC using unstimulated PBMC or VTX-2337-stimulated PBMC from 15 donors, including 10 donors with FF or FV phenotype and 5 donors with VV phenotype.
Blood was collected from healthy donors and PBMCs were isolated using a Ficoll gradient. PBMCs were activated by culturing them in the presence of 500 nM VTX-2337 at 37° C. in a humidified 5%CO2 incubator for 48 hours. Activated PBMCs were then incubated with rituximab-coated HS-Sultan cells loaded at a ratio of 100:1 for 4 hours. Lysis was determined by measuring release of the fluorescent dye Calcein AM from the HS-Sultan cells.

[3] = system: breast cancer cell line SKBR3; experiment: Herceptin-mediated ADCC of SKBR3 cells by PBMC effector cells; details: PBMCs activated with the ADCC enhancer; FIG. 3
Description: as §1

Row | Compound | lysis of K562 target cells (K562 target cells; PBMCs stimulated with 167 nM ADCC enhancer) | lysis of K562 target cells (K562 target cells; PBMCs stimulated with 500 nM ADCC enhancer) | cell killing of Herceptin coated MDA-MB-231 cells [1] | rituximab-mediated ADCC, specific lysis ([2]; PBMC from high affinity VV donors stimulated with 500 nM VTX-2337 for 48 hours) [%] | rituximab-mediated ADCC, specific lysis ([2]; PBMC from low affinity FF/FV donors stimulated with 500 nM VTX-2337 for 48 hours) [%] | ADCC (percent specific lysis) ([2]; patient with low affinity genotype, PBMCs stimulated with 500 nM ADCC enhancer, Rituxan-coated targets, E:T 50:1, FIG. 4) [%] | cell killing of Herceptin coated SKBR3 cells [3] [%] | baseline ADCC (percent specific lysis) ([2]; patient with high affinity genotype, E:T 50:1, FIG. 4) | baseline ADCC (percent specific lysis) ([2]; patient with lower affinity genotype, E:T 50:1, FIG. 4) [%] | rituximab-mediated ADCC, specific lysis ([2]; unstimulated PBMC from FF/FV donors) [%] | rituximab-mediated ADCC, specific lysis ([2]; unstimulated PBMC from VV donors) [%]
1 | CCCN(CCC)C(=O)C1=Cc2ccc(-c3ccc(C(=O)N4CCCC4)cc3)cc2N=C(N)C1 [ADCC enhancer, {2-amino-8-[4-(pyrrolidinylcarbonyl)phenyl]-(3H-benzo[f]azepin-4-yl)}-N,N-dipropylcarboxamide] | up to 45% | greater than 90% | 40-60% | 55.5±2.6 | 40.0±4.1 | 30 | > 80 | – | – | – | –
2 | Rituxan: monoclonal antibody against the protein CD20 | – | – | – | – | – | – | – | approximately 30% | 10 | 20.5±2.5 | 31.7±2.9
